Data published in patent publication US20140336159A1, “METHODS FOR TREATING AND DIAGNOSING RESPIRATORY TRACT INFECTIONS” (PULMATRIX, INC., priority 2011, published 2014).

How the values were obtained:
[1] = system: LPS stimulated peritoneal macrophages; assay: Cytokine secretion by LPS stimulated peritoneal macrophages; format: cell-based, mouse (C57BL/6); details: for LPS induced inflammatory mediator secretion (KC, IL-6): mouse macrophages, 10 ng/ml LPS, 2 hours, salts 0-50 mM
From the text: Macrophages represent a key component of the innate immune system. Alveolar macrophages are thought to play a central role in disease pathogenesis by secreting pro-inflammatory cytokines and chemokines in the context of both chronic obstructive pulmonary disease (COPD) and cystic fibrosis (CF), two respiratory illnesses involving airway inflammation. It was hypothesized that given the prominent role of alveolar macrophages in LPS induced lung inflammation, it may be possible that Ca^2+-ion containing formulations directly influence the inflammatory response of the macrophage after LPS exposure. In order to test this hypothesis in-vitro, murine peritoneal macrophages were isolated. C57BL/6 female mice were anesthetized using isofluorane inhalant. […] To confirm macrophage phenotype, a cytospin preparation was performed. Cells were cultured in DMEM:F12 overnight. The following day the media was removed and the macrophages were exposed to media supplemented with varying concentrations of LPS (1 ng/ml to 1 microgram/ml), a dose range of supplemental calcium chloride (5 mM to 50 mM) as well as a dose range of calcium chloride in the presence of LPS for 2 hours. After 2 hours in culture the media was collected for analysis of inflammatory cytokines using LUMINEX® Multiplex immunoassays (Invitrogen/Life Technologies, Grand Island, N.Y.) and BIO-PLEX MANAGER™ software (Version 6) (Bio-Rad, Hercules, Calif.). Presto blue or trypan blue assays were used to determine cell viability. […] The media content for 3 representative inflammatory mediators (IL-6, KC and TNF-alpha) cultured under LPS free conditions (unstimulated) as well as cells exposed to 1 ng/ml LPS were analyzed.
(§1) To determine the effects of alternating the cation in the calcium chloride salt, LPS stimulated human or mouse macrophages were exposed to alternative divalent and monovalent cations, magnesium chloride and sodium chloride, as well as an alternative […] anion, calcium lactate. Normal human monocytes were differentiated into macrophage derived monocytes in culture for 7 days as described in Example 16, and perotineal derived mouse macrophages were described in Example 15. Following two hours of incubation with LPS (10 ng/ml) and the appropriate salt concentration, supernatants were collected for LUMINEX protein analysis of inflammatory cytokines.

human macrophages = assay: Cytokine secretion by LPS stimulated human monocyte-derived macrophages (normal and COPD-derived); format: cell-based; details: 10 ng/ml LPS, 2 hours; for LPS induced cytokine production (IL-8, IL-6): human macrophages, salts 0-50 mM
Procedure: Normal and COPD-derived human monocytes were differentiated into macrophage derived monocytes in culture for 7 days. Cells were thawed following storage in liquid nitrogen, and then plated at 2.0-2.5×10^5 cells/well (in 0.2 ml per well) in IMDM cell culture media containing 10% human serum and human GM-CSF (50 ng/ml). On day 7, assays were performed on the cells, using media containing serum but no GM-CSF. Cells were stimulated with 10 ng/ml LPS, and exposed to calcium chloride concentrations of either 10 or 25 mM. Following two hours, supernatants were collected for LUMINEX analysis of IL-8, IL-6, TNF alpha and MIP-1 alpha (FIG. 17A), IL-8 only for COPD (FIG. 17B). […] Calcium chloride reduced LPS induced inflammation in normal and COPD-derived human monocyte-derived macrophages.
as §1

[2] = system: LPS stimulated peritoneal macrophages
Procedure: Following 2 hours of incubation, cells were lysed, RNA was isolated, and a cDNA reaction was performed. RNA was harvested using the QIAGEN (Germantown, Md.) RNeasy® Plus Mini kit according to the manufacturer's Animal Cell Protocol (2005). RNA concentration and purity was determined by spectrophotometry using NANODROP 1000 spectrophotometer (Thermo Fisher Scientific, Wilmington, Del.). The expression of KC, IL-6, and TNF alpha were assessed by quantitative PCR. RNA expression levels of selected genes were quantified using the delta/delta C(t) (ΔΔCt) method using the expression of 18S as an internal reference for each sample. RNA was quantified by a two-step procedure in which RNA was converted to cDNA by reverse transcription using the iSCRIPT cDNA Synthesis kit from Bio-Rad followed by quantitative PCR (qPCR) using iQ SYBR Green Supermix from Bio-Rad.
The following cDNA synthesis reaction conditions were used: […]
The following quantitative PCR reaction conditions were used: […]
Data were collected and analyzed using the (delta/delta) ΔΔCt method. […] The fold change was then determined by the equation: 2^−ΔΔCt. […]

[3] = system: macrophages stimulated with S. pneumoniae; details: S. pneumoniae challenge, 0, 5, 10, 25 mM, 2 hours
Procedure: (§3) To assess the level of bacterial induced inflammation in isolated peritoneal murine macrophages, isolated cells were placed in cell culture media and allowed to adhere to 96 well plates overnight. […] Following two hours of incubation, supernatants were collected for LUMINEX analysis of KC and TNF alpha with the results shown in FIG. 19.

TLR7 = TLR7 (Mus musculus, UniProt P58681); details: TLR 7 ligand; negative values indicate increased KC
Procedure: (§2) It was hypothesized that calcium likely alters the immune response to LPS and possibly other TLR receptors in alveolar macrophages. To test this hypothesis, primary macrophages were isolated from mice. Briefly, C57BL/6 female mice were anesthetized using isofluorane inhalant. Animals were injected i.p. with 1.5 ml thioglycollate. Three to four days post injection mice were euthanized using CO2 to harvest peritoneal macrophages. Under sterile conditions, the abdominal wall was exposed and the peritoneal cavity was injected with 7 ml of lavage media, which was immediately recovered back into the syringe and deposited into a 50 mL conical tube. The peritoneal cavity was opened and the residual lavage media was recovered. Cell suspensions were centrifuged at 1200 rpm (RT-6000) for 8-10 minutes. The supernatant was removed and cell pellets were resuspended in 1-2 ml lysis buffer, incubated at room temperature (RT) for 1-2 minutes, and resuspended in18-19 ml cell culture media (DMEM/F-12). Cells were again centrifuged, supernatants were removed, the cell pellets were pooled, washed once more in cell culture media, centrifuged, and resuspended in 10 ml cell culture media, and cells were counted using a hemocytometer. To confirm macrophage phenotype, a cytospin preparation was performed. Cells were cultured in DMEM:F12 overnight. Cells were then stimulated with agonists to TLR4 (LPS or LipidA), TLR1/2 (pam3CSK4), TLR2/6 (FLS-1), TLR2 (LT-SA), TLR3 (Poly I:C), TLR 5 (Flagellin), TLR7 (Gardiquimod or Loxoribine) and TLR9 (CPG-ODN) ligands with 0, 10 or 25 mM calcium chloride supplemented to the media.

TLR3 = TLR3 (Mus musculus, UniProt Q99MB1); details: TLR 3 ligand; negative values indicate increased KC
Procedure: as §2

TLR1/2 = TLR1/2 (Mus musculus, UniProt Q9EPQ1+Q9QUN7); details: TLR 1/2 ligand; negative values indicate increased KC
Procedure: as §2

TLR9 = TLR9 (Mus musculus, UniProt Q9EQU3); details: TLR 9 ligand; negative values indicate increased KC
Procedure: as §2

TLR 5 = TLR 5 (Mus musculus, UniProt Q9JLF7); details: TLR 5 ligand; negative values indicate increased KC
Procedure: as §2

TLR2/6 = TLR2/6 (Mus musculus, UniProt Q9EPW9+Q9QUN7); details: TLR 2/6 ligand; negative values indicate increased KC
Procedure: as §2

TLR4 = TLR4 (Mus musculus, UniProt Q9QUK6); details: TLR 4 ligand; negative values indicate increased KC
Procedure: as §2

TLR2 = TLR2 (Mus musculus, UniProt Q9QUN7); details: TLR 2 ligand; negative values indicate increased KC
Procedure: as §2

[4] = system: macrophages stimulated with K. pneumoniae; details: 1×10^7 CFU/ml K. pneumoniae, 0, 5, 10, 25 mM, 2 hours
Procedure: as §3

[5] = system: LPS stimulated peritoneal macrophages (TRPV channels); assay: Cytokine secretion by LPS stimulated macrophages treated with TRPV channel antagonists; format: cell-based, mouse
From the text: The transient receptor potential V (TRPV) family of ion channels is sensitive to osmotic changes and has an intimate relationship with levels of intracellular calcium. […] In order to determine the influence of TRPV channels Ruthenium red, a potent, broad acting TRPV channel antagonist was used. […] The results can be seen in FIG. 20A. […] Following two hours, supernatants were collected for LUMINEX analysis of inflammatory cytokines. […] However, while treatment with SKF96365 did have an effect on LPS stimulated macrophages, it was not as pronounced as that of treatment with ruthenium red.

Influenza A/WSN/33/1 = format: cell-based
neutrophils in the BAL = assay: Ozone exposure mouse model; format: in vivo, mouse (BALB/cJ); details: 100 microgram/kg intranasal
Procedure: Female wild-type (BALB/cJ) were obtained from The Jackson Laboratory (Bar Harbor. ME) at six weeks of age. Mice were treated with dry powder formulations Leucine (98% leucine, 2% sodium chloride) and Formulation II (75% calcium lactate, 20% leucine, 5% sodium chloride) in a temperature and humidity controlled room (30±5% RH and 20±2° C.) or administered liquid treatments of a p38 MAP kinase inhibitor (100 microgram/kg, Tocris SB203580), and USP-Grade Saline (0.9% NaCl), Cardinal Health via the intranasal route. Naïve mice were not exposed to dry powder treatment. One hour following the end of treatment, conscious mice were placed in a custom plastic exposure chamber (26 cm×16 cm×12 cm, Braintree Scientific) on a heated pad at 37° C. Ozone was generated via corona discharge using OZ-2AD Ozone Generator (Ozone Solutions, Hull, Iowa) and diluted with 2.0 LPM (liter per minute) of USP breathing air (MedTech, Medford, Mass.) to a concentration of 3 ppm. The concentration inside the exposure chamber was sampled continuously at 1.0 LPM using UV-106L Ozone Analyzer (Ozone Solutions, Hull, Iowa). Mice were exposed to ozone for 1 hour. Control mice were placed in static cages and exposed to ambient air for a duration matched to each ozone exposure. Mice were euthanized 4 hours following the end of the ozone or air exposure using a fatal dose of pentobarbital. BAL and cell counts were performed. […]

Sequence of TLR2 (Q9QUN7 25-784): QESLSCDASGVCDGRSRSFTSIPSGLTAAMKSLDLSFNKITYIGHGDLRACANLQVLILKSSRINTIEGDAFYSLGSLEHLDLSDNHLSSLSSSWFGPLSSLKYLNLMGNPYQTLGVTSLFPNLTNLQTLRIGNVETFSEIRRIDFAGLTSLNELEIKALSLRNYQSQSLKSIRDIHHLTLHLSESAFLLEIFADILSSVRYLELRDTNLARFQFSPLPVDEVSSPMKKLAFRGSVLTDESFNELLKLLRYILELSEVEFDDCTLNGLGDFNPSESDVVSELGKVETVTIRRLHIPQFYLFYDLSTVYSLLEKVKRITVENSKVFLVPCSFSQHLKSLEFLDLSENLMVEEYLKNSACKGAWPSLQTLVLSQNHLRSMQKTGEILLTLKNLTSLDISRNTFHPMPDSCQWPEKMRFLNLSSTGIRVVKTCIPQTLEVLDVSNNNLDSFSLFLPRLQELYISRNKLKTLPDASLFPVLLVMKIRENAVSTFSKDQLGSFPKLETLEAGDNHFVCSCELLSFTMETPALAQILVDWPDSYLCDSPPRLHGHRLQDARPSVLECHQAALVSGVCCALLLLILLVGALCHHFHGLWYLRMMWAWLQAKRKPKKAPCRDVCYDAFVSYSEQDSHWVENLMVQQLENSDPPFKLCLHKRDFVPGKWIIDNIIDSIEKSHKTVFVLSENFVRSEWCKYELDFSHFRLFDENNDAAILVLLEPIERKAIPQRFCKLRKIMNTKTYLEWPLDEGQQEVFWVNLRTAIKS
Sequence of TLR2/6 (Q9QUN7 25-784): as above
Sequence of TLR2/6 (Q9EPW9 28-795): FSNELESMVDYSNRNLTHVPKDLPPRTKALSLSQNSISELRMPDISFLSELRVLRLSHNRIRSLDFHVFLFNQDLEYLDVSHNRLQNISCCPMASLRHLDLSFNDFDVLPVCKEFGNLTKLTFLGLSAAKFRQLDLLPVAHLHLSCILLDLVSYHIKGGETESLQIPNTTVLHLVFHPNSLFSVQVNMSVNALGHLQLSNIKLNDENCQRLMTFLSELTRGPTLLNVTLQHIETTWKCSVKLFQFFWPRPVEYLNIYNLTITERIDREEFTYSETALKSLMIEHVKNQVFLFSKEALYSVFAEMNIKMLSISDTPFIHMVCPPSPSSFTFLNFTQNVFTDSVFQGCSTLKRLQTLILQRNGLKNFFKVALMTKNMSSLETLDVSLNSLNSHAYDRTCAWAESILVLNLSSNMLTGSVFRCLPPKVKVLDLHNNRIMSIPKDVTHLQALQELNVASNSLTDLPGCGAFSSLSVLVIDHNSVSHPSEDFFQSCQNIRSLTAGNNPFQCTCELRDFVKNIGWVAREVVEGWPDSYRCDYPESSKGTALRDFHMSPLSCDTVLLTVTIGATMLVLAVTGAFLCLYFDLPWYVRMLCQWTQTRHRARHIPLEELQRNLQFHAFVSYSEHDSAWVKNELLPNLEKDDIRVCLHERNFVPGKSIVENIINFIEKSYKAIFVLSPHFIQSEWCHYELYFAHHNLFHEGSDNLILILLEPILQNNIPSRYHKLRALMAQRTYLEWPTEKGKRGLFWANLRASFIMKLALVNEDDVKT
Sequence of TLR4 (Q9QUK6 26-835): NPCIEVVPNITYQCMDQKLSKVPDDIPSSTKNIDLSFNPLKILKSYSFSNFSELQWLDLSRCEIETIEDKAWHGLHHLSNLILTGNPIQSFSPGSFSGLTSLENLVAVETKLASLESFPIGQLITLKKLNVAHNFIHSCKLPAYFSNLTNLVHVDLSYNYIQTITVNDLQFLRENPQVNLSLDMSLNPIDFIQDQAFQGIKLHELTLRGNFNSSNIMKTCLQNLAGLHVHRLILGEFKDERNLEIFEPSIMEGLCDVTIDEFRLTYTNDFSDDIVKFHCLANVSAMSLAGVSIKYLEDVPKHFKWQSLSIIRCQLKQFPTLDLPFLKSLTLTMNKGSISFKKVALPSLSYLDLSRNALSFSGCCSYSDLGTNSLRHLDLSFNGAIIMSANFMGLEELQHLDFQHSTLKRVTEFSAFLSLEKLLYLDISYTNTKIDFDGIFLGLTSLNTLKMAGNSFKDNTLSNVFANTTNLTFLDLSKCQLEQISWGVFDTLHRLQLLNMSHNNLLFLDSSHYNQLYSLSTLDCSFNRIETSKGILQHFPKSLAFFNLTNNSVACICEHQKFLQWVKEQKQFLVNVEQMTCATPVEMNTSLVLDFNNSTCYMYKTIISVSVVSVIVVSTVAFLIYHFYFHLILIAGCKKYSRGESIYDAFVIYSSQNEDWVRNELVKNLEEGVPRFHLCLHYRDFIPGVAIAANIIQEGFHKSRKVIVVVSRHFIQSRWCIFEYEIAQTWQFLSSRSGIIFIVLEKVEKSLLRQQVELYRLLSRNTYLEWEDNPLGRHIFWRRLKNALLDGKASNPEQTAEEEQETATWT
Sequence of TLR4 (Q9JHF9 19-160 partner): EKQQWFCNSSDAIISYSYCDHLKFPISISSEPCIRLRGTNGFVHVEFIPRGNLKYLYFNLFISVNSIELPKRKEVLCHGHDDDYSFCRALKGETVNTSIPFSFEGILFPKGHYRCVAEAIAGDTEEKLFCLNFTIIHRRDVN
Sequence of TLR3 (Q99MB1 26-905): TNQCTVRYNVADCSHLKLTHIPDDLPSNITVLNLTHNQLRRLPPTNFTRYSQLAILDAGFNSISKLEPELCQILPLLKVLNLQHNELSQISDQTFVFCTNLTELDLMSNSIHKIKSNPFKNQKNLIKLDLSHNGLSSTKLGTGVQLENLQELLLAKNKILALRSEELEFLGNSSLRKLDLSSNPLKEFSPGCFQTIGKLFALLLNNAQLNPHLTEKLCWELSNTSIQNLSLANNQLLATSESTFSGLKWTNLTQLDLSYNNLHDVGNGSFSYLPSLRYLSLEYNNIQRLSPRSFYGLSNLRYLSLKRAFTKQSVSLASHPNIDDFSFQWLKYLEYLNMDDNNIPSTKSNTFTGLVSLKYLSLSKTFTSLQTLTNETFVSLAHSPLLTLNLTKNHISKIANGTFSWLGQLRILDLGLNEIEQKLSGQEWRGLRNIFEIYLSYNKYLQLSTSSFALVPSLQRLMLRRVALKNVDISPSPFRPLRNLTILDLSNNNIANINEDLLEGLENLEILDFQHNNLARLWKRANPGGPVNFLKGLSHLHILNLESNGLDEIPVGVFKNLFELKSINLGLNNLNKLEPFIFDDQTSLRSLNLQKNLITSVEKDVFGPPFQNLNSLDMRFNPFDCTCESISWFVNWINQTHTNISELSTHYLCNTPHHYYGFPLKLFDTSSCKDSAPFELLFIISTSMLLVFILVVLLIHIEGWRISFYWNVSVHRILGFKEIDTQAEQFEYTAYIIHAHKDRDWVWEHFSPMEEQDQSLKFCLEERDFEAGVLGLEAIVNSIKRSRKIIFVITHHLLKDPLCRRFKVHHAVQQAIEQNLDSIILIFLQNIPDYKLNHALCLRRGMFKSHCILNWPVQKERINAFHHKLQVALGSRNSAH
Sequence of TLR9 (Q9EQU3 26-1032): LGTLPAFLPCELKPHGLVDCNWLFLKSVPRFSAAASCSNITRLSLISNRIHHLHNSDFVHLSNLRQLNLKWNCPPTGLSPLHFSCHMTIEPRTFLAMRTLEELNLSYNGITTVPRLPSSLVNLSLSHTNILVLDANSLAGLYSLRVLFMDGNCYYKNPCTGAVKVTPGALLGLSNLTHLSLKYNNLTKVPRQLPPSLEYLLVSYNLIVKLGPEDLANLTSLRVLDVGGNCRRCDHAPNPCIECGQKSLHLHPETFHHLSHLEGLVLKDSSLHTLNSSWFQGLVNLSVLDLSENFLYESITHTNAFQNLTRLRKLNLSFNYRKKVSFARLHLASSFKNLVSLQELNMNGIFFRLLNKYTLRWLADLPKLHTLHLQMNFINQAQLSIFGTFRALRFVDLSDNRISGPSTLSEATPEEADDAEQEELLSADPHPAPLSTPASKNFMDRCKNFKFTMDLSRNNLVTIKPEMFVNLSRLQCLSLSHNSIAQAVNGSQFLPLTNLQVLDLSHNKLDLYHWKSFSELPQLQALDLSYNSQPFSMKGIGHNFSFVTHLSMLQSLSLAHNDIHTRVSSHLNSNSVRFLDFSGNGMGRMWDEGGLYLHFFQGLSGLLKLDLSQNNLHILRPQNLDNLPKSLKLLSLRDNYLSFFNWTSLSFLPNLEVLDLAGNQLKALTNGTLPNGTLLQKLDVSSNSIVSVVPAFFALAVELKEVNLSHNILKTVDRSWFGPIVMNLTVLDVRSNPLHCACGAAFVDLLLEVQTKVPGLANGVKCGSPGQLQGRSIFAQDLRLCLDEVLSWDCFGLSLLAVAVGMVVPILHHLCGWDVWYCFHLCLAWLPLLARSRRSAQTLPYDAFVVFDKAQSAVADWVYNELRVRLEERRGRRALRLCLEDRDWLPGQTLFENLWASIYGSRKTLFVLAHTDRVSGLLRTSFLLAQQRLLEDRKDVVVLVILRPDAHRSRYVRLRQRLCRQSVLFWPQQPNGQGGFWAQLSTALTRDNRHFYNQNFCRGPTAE

SMILES: [Cl-].[Cl-].[Mg+2] [magnesium chloride]
- LPS induced inflammatory mediator secretion (KC, IL-6) [1]: some activity
- LPS induced cytokine production (IL-8, IL-6) (human macrophages): of lesser magnitude than calcium lactate but more potent than sodium chloride

SMILES: CC(O)C(=O)[O-].CC(O)C(=O)[O-].[Ca+2] (stereo not shown) [calcium lactate]
- LPS induced inflammatory mediator secretion (KC, IL-6) [1]: more profound effect
- LPS induced cytokine production (IL-8, IL-6) (human macrophages): most profound effect

SMILES: [Ca+2].[Cl-].[Cl-] [calcium chloride]
- gene expression of KC, IL-6 and TNFα ([2]; 1 ng/ml LPS, 2 hours, 10, 25, 50 mM, compared to untreated (0)): significantly reduced
- NRIP1 gene expression ([2]; LPS stimulated): significantly reduced
- inflammatory mediator secretion (KC, TNF alpha) [3]: little effect
- % KC reduction at 10 mM calcium ion (TLR7): −10 ± 41%
- % KC reduction at 25 mM calcium ion (TLR7): −20 ± 49%
- % KC reduction at 10 mM calcium ion (TLR3): 81 ± 7%
- % KC reduction at 25 mM calcium ion (TLR3): 76 ± 16%
- % KC reduction at 10 mM calcium ion (TLR1/2): −1 ± 9%
- % KC reduction at 25 mM calcium ion (TLR1/2): −27 ± 58%
- % KC reduction at 10 mM calcium ion (TLR9): −55 ± 51%
- % KC reduction at 25 mM calcium ion (TLR9): −144%
- % KC reduction at 10 mM calcium ion (TLR 5): 54 ± 6%
- % KC reduction at 25 mM calcium ion (TLR 5): 50 ± 2%
- % KC reduction at 10 mM calcium ion (TLR2/6): −25 ± 11%
- % KC reduction at 25 mM calcium ion (TLR2/6): −51 ± 27%
- % KC reduction at 10 mM calcium ion (TLR4): 68 ± 15%
- % KC reduction at 25 mM calcium ion (TLR4): 75 ± 13%
- % KC reduction at 10 mM calcium ion (TLR2): 46 ± 10%
- % KC reduction at 25 mM calcium ion (TLR2): 85 ± 9%
- protein secretion of KC, IL-6 and TNF alpha ([1]; 1 ng/ml LPS, 2 hours, 10, 25, 50 mM, compared to untreated (0) cells): significantly reduced
- cell viability ([1]; Presto blue or trypan blue assays): generally did not affect cell viability
- LPS induced inflammatory mediator secretion (KC, IL-6) [1]: decreased
- inflammatory mediator release of unstimulated cells ([1]; no LPS, increasing calcium chloride content): mild increase
- inflammatory cytokine secretion (IL-8, IL-6, TNF alpha, MIP-1 alpha; IL-8 only for COPD) (human macrophages; 25 mM, to near that of non-LPS challenged cells): significant decline
- LPS induced cytokine production (IL-8, IL-6) (human macrophages): of lesser magnitude than calcium lactate but more potent than sodium chloride
- inflammatory mediator secretion (KC, TNF alpha) [4]: dose-dependent decrease

SMILES: [Cl-].[Na+] [sodium chloride, reference compound]
- LPS induced inflammatory mediator secretion (KC, IL-6) [1]: little influence
- LPS induced cytokine production (IL-8, IL-6) (human macrophages): little influence

SMILES: COc1ccc(CCCOC(Cn2ccnc2)c2ccc(OC)cc2)cc1 (stereo not shown) [SKF 96365]
- KC and IL-6 concentrations ([5]; 5, 20, 50 micromolar, 10 ng/ml LPS, 2 hours): dose dependent decrease
- TNF alpha concentration ([5]; 20 and 50 micromolar, 10 ng/ml LPS): reduced at the highest two doses
- decrease in KC concentration ([5]; 50 micromolar, 10 ng/ml LPS): 51%
- KC and TNF alpha reduction ([5]; along with 10 mM calcium chloride, compared to calcium chloride alone): small increase

SMILES: CC(=O)N[C@H]1[C@H]([C@H](O)[C@H](O)CO)OC(C(=O)O)=C[C@@H]1N=C(N)N [Zanamivir, zanamivir]
- viral infection / Influenza titer versus untreated (Air) control (Influenza A/WSN/33/1): reduced viral infection in a dose responsive manner

SMILES: N.N.N.N.N.N.N.N.N.N.N.N.N.N.[Cl-].[Cl-].[Cl-].[Cl-].[Cl-].[Cl-].[O-2].[O-2].[Ru+3].[Ru+3].[Ru+4] [ruthenium red]
- decrease in KC concentration ([5]; in the presence of 10 mM calcium chloride, 1 ng/ml LPS): further enhanced
- decrease in KC concentration ([5]; ruthenium red alone (1, 5, 10, 20 micromolar), 1 ng/ml LPS, 2 hours): more than 50%

SMILES: C[S+]([O-])c1ccc(-c2nc(-c3ccncc3)c(-c3ccc(F)cc3)[nH]2)cc1 (stereo not shown) [p38 MAP kinase inhibitor]
- pulmonary total cell response to ozone exposure (neutrophils in the BAL): significantly inhibited
